From US12186310B2, “Antibody-drug conjugate” (DAIICHI SANKYO COMPANY, LIMITED, priority 2012, dated 2025)
Like-named read-outs stand apart in the source and are kept apart here.

Columns and labels:
A375 cells = assay: Cytotoxicity test (8) of released drug; format: cell-based; details: Homo sapiens, A-375, 144 h, read-out: IC50, cytotoxic activity against the A375 cells
Experimental: A375 cells (ATCC) were cultured in DMEM (GIBCO) containing 10% fetal bovine serum (MOREGATE) (hereinafter, referred to as a medium). The A375 cells were prepared to have a concentration of 4×10^4 cells/mL by using a medium, added at a concentration of 25 μL/well to a 96-well microplate for cell culture (CORNING) charged with […] of a medium, and cultured overnight. On the next day, each test substance diluted into 1000 nM, 200 nM, 40 nM, 8 nM, 1.6 nM, 0.32 nM, and 0.064 nM by using DMSO was added at a concentration of 0.5 μL/well to the microplate. DMSO was added at a concentration of 0.5 μL/well to test substance non-supplemented wells. The volume of the medium in each well was adjusted to 100 μL by the addition of 10 μL/well of a medium, and the cells were cultured under 5% CO2 at 37° C. for 6 days. After the culture, the microplate was taken out from the incubator and left standing at room temperature for 30 minutes. The culture solution was charged with an equal amount of CellTiter-Glo Luminescent Cell Viability Assay (Promega) and stirred. After the microplate was left standing at room temperature for 10 minutes, the amount of light emission was measured by using a plate reader. The IC50 value was calculated according to the following equation: IC50(nM)=antilog((50−d)×(LOG10b−LOG10a)/(d−c)+LOG10b) • a: Concentration a of the test substance • b: Concentration b of the test substance • c: Ratio of live cells supplemented with the test substance having the concentration a • d: Ratio of live cells supplemented with the test substance having the concentration b
The concentrations a and b establish the relation a>b crossing 50% ratio of live cells.
The survival rate of cells was calculated according to the following equation: Survival rate of cells (%)=a/b×100 • a: Average amount of light emission from the test substance-supplemented wells (n=2) • b: Average amount of light emission from the test substance non-supplemented wells (n=10)

[1] = Self-degradation of released drug derivative with aminal structure; format: physicochemical; details: undergoes a self-degradation to release HO—CH2—C(═O)—(NH-DX)
human tumor = human tumor subcutaneously transplanted mouse model; cited from earlier work
topoisomerase I = biological target: T1, topoisomerase I (Homo sapiens, UniProt P11387); details: compared with SN-38 and topotecan; cited from earlier work
T1 sequence (P11387 1-765): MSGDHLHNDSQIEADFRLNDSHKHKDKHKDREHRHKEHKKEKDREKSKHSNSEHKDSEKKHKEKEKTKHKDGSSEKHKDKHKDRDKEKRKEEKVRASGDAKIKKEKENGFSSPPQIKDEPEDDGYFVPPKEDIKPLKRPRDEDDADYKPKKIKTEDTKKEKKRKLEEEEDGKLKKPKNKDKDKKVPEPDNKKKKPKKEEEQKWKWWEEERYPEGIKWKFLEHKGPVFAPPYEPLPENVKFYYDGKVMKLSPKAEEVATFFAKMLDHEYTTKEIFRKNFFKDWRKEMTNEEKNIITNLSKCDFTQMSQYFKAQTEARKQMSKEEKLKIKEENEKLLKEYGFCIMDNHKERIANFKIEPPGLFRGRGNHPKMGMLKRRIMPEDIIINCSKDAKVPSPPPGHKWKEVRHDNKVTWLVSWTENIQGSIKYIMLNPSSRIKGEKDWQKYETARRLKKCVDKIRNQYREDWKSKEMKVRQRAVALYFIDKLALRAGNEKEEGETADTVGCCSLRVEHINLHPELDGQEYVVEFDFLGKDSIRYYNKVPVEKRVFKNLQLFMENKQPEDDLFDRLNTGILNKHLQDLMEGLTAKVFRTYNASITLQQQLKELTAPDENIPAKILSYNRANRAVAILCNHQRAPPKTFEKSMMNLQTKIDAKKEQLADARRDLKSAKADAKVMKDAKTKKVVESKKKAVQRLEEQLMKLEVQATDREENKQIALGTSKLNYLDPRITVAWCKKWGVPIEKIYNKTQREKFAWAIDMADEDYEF

various cancer cells = details: against various cancer cells; cited from earlier work
[2] = test system: Human non-small cell lung cancer line Calu-6 cells; assay: Antitumor test (3), subcutaneously transplanted Calu-6; format: in vivo, mouse; details: Calu-6 subcutaneous, female nude mice; 10 mg/kg intravenously at Days 11, 18, and 25 (qw×3); FIG. 19
Experimental: Assay and calculation expression: In all studies, the major axis and minor axis of tumor were measured twice a week by using an electronic digital caliper (CD-15C, Mitutoyo Corp.), and the tumor volume (mm^3) was calculated. The calculation expression is as shown below. Tumor volume (mm^3)=½×Major axis (mm)×[Minor axis (mm)]^2
Human non-small cell lung cancer line Calu-6 cells were purchased from ATCC (American Type Culture Collection). 5×10^6 cells suspended in physiological saline were subcutaneously transplanted to the right abdomen of each female nude mouse (Day 0), and the mice were randomly grouped at Day 11.

[3] = test system: Human melanoma line A375 cells; assay: Antitumor test (1), subcutaneously transplanted A375; format: in vivo, mouse; details: A375 subcutaneous, female nude mice; 10 mg/kg intravenously at Days 11, 18, and 25; FIG. 17
Experimental: Mouse: 5- to 6-week-old female BALB/c nude mice (Charles River Laboratories Japan, Inc.) were acclimatized for 4 to 7 days under SPF conditions before use in the experiment. The mice were fed with sterilized solid feed (FR-2, Funabashi Farms Co., Ltd) and given sterilized tap water (prepared by the addition of 5 to 15 ppm sodium hypochlorite solution). Assay and calculation expression: In all studies, the major axis and minor axis of tumor were measured twice a week by using an electronic digital caliper (CD-15C, Mitutoyo Corp.), and the tumor volume (mm^3) was calculated. The calculation expression is as shown below. Tumor volume (mm^3)=1⁄2×Major axis (mm)×[Minor axis (mm)]^2 All of the antibody-drug conjugates were diluted with physiological saline (Otsuka Pharmaceutical Factory, Inc.) and used at a volume of 10 mL/kg for intravenous administration to the tail of each mouse. Human melanoma line A375 cells were purchased from ATCC (American Type Culture Collection). 8×10^6 cells suspended in physiological saline were subcutaneously transplanted to the right abdomen of each female nude mouse (Day 0), and the mice were randomly grouped at Day 11.

Molecule: CC[C@@]1(O)C(=O)OCc2c1cc1n(c2=O)Cc2c-1nc1cc(F)c(C)c3c1c2[C@@H](NC(=O)CCCN)CC3 [Example (1), 4-Amino-N-[(1S,9S)-9-ethyl-5-fluoro-9-hydroxy-4-methyl-10,13-dioxo-2,3,9,10,13,15-hexahydro-1H,12H-benzo[de]pyrano[3′,4′:6,7]indolizino[1,2-b]quinolin-1-yl]butanamide]
- IC50 (A375 cells): 10 to 100 nM

Molecule: CC[C@@]1(O)C(=O)OCc2c1cc1n(c2=O)Cc2c-1nc1cc(F)c(C)c3c1c2[C@@H](NC(=O)COCCN)CC3 [Example (42), 2-(2-Aminoethoxy)-N-[(1S,9S)-9-ethyl-5-fluoro-9-hydroxy-4-methyl-10,13-dioxo-2,3,9,10,13,15-hexahydro-1H,12H-benzo[de]pyrano[3′,4′:6,7]indolizino[1,2-b]quinolin-1-yl]acetamide]
- IC50 (A375 cells): 1 to 10 nM

Molecule: CC[C@@]1(O)C(=O)OCc2c1cc1n(c2=O)Cc2c-1nc1cc(F)c(C)c3c1c2[C@@H](NC(=O)CO)CC3 [Example (75), N-[(1S,9S)-9-ethyl-5-fluoro-9-hydroxy-4-methyl-10,13-dioxo-2,3,9,10,13,15-hexahydro-1H,12H-benzo[de]pyrano[3′,4′:6,7]indolizino[1,2-b]quinolin-1-yl]-2-hydroxyacetamide]
- IC50 (A375 cells): 0.1 to 1 nM

Molecule: CCC1(O)C(=O)OCc2c1cc1n(c2=O)Cc2c-1nc1cc(F)c(C)c3c1c2C(NC(=O)COCN)CC3 (stereo not shown) [NH2—CH2—O—CH2—C(═O)—(NH-DX)]
- stability of the aminal structure in the molecule [1]: unstable

Molecule: CC[C@@]1(O)C(=O)OCc2c1cc1n(c2=O)Cc2c-1nc1cc(F)c(C)c3c1c2[C@@H](N)CC3 [exatecan, (1S,9S)-1-amino-9-ethyl-5-fluoro-2,3-dihydro-9-hydroxy-4-methyl-1H,12H-benzo[de]pyrano[3′,4′:6,7]indolizino[1,2-b]quinolin-10,13(9H,15H)-dione]
- antitumor effect (human tumor): potent antitumor effect
- inhibitory activity on topoisomerase I (topoisomerase I): higher than SN-38
- IC50 (A375 cells; released drug, cultured 6 days, CellTiter-Glo): 0.1 to 1 nM
- in vitro cytocidal activity (various cancer cells): higher in vitro cytocidal activity

B1: M30-H1-L4P antibody: M30-H1-L4 antibody with the modification of a glycan regulated by defucosylation (antibody, chains of the INN, looked up, V domains shown)
VH: QVQLVQSGAEVKKPGSSVKVSCKASGYTFTNYVMHWVRQAPGQGLEWMGYINPYNDDVKYNEKFKGRVTITADESTSTAYMELSSLRSEDTAVYYCARWGYYGSPLYYFDYWGQGTLVTVSS
VL: EIVLTQSPATLSLSPGERATLSCRASSRLIYMHWYQQKPGQAPRPLIYATSNLASGIPARFSGSGSGTDFTLTISSLEPEDFAVYYCQQWNSNPPTFGQGTKVEIK
modifications: defucosylated
notes: M30-H1-L4 antibody with the modification of a glycan regulated by defucosylation
- tumor volume [2]: progression of tumor growth
- tumor volume [3]: progression of tumor growth
